In patent US5190937A, “Lactam derivatives” (Beecham Group p.l.c., priority 1990, dated 1993):

Molecular target: T1, human lung fibroblast collagenase (Homo sapiens, UniProt P03956)
T1 construct: purified from culture supernatants from the human lung fibroblast cell line, WI-38; endogenous in cells; host or cells: WI-38 (human lung fibroblast cell line), culture supernatant, purified
T1 sequence (P03956 100-469): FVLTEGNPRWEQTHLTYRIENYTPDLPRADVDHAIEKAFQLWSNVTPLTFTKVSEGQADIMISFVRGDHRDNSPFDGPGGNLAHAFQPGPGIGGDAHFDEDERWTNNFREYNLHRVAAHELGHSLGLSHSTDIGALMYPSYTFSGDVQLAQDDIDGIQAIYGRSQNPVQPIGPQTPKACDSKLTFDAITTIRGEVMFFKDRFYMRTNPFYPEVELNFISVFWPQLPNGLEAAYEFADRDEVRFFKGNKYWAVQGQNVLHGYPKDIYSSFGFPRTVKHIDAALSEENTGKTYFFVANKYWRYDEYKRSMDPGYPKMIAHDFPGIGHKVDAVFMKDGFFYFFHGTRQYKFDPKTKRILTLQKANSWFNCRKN
Experiment: Collagenase inhibitor assay (degradation of 3H-acetylated rat skin type I collagen)
Format: biochemical
Settings: collagenase purified from WI-38 culture supernatants; 3H-acetylated rat skin type I collagen substrate; 5 min pre-incubation, 37° C. overnight; β-mercaptoethanol may be incorporated; read-out: IC50 (50% inhibitory concentration), inhibition of human lung fibroblast collagenase
Description: The test is performed essentially as in Cawston and Barrett, Anal. Biochem. 99, 340-345 (1979). Compounds for testing are dissolved in methanol by sonication and added to collagenase (purified from culture supernatants from the human lung fibroblast cell line, WI-38) in buffer. To ensure that thiol collagenase inhibitors remain unoxidised, β-mercaptoethanol may be incorporated in the methanol solvent and/or the diluent buffers to give a final concentration of 9.6×10-^5 M. The minimal direct effect of β-mercaptoethanol on the degradation of collagen by human collagenase is controlled for. After a 5 min pre-incubation at 37° C., the assay tubes are cooled to 4° C. and ^3 H-acetylated rat skin type I collagen is added. The assay tubes are incubated at 37° C. overnight. The ^3 H-collagen forms insoluble fibrils, which are the substrate for the enzyme.
To terminate the assay, the assay tubes are spun at 12000 rpm for 15 min. Undigested ^3 H-collagen is pelleted, while digested ^3 H-collagen is found as soluble peptides in the supernatant. A sample of the supernatant is taken for liquid scintillation counting.
The activity of collagenase inhibitors (IC50 :50% inhibitory concentration) is expressed as that concentration of compound that inhibits a known (standard) concentration of enzyme by 50%.

Q: Which IC50 does the source give for `COC(=O)CC(S)C(CC(C)C)C(=O)NC1CCCCCCCCCCNC1=O` (single isomer, unassigned) [Example E2A, 3-mercapto-6-methyl-4-[(2-oxoazacyclotridec-3-yl)aminocarbonyl]heptanoic acid, methyl ester] here?
A: 2.7 nM

Q: `CC(C)CC(C(=O)NC1CCCCCCCCCCNC1=O)C(S)CC(=O)O` (single isomer, unassigned) [Example E3A, 3-Mercapto-6-methyl-4-[(2-oxoazacyclotridec-3-yl)aminocarbonyl]heptanoic acid] was tested. Which IC50 did it give?
A: 74.5 nM

Q: How did the IC50 turn out when `CC(C)CC(C(=O)NC1CCCCCCCCCCNC1=O)C(S)CC(=O)OC(C)C` (stereo not drawn) [Example E4A] was run?
A: 15 nM
